This note sets out measurements from PMC6272327, “Discovery of Metal Ions Chelator Quercetin Derivatives with Potent Anti-HCV Activities” (Molecules, 2015).

The structures appear in SMILES notation. Read-outs that look alike come from different tables or passages of the source. Bounds are passed on as bounds.

Data set [1] has as its system HCV infectious virus J399EM. Kind of data set: Anti-HCV assay in authentic HCV infection/replication system (J399EM EGFP reporter virus) in Huh7.5.1 cells. Type of data set: cell-based, hepatitis C virus (JFH1-derived, genotype 2a). Conditions: for EC50: Hepatitis C virus, Huh-7.5.1, 72 h; for SI (selectivity index): ratio of CC50 to EC50, Huh7.5.1 cells. On the procedure:
(§1) The inhibition of HCV by all synthesized quercetin derivatives was evaluated following a previously reported procedure. All newly synthesized compounds were tested in authentic HCV infection/replication system in the human hepatoma cell lines Huh7.5.1 using mycophenolic acid (MPA) as control compound. The cytotoxicity effect of the test compounds was also evaluated in the same cell line by MTT method. Antiviral effect and cytotoxicity effect were summarized as EC50 and CC50 respectively, as well as the selective index (SI) which is the ratio of CC50 to EC50. The stability of quercetin-3-O-ester compounds were also tested in the same buffer as the antiviral activity assay at 37 °C and the hydrolysate was measured by HPLC.
The biological assays were performed following a previously reported procedure. The Huh7.5.1 cell line and the HCV infectious virus J399EM were kindly provided by Xin-Wen Chen, Wuhan Institute of Virology, Chinese Academy of Sciences. Huh7.5.1 cells were cultured in Dulbecco’s modified Eagle’s medium (DMEM) containing 10% (v/v) fetal bovine serum, 0.5 mg/mL G418, 100 IU/mL penicillin, and […].
J399EM is an infectious HCV virus derived from the JFH1 virus (genotype 2a) by insertion of enhanced green fluorescent protein (EGFP) into the HCV NS5A region. The establishment of the infectious J399EM HCV virus has been described previously. J399EM was propagated in Huh7.5.1 cells. Briefly, Huh7.5.1 cells were infected with J399EM at MOI = 0.1 and cultured for 4 days. Culture supernatant was collected and filtered through a 0.45 μm membrane and stored at −80 °C as virus stock. Virus titer was tested in Huh7.5.1 cells. Stocks were serially diluted, and the foci forming units (FFU) were determined as the number of fluorescent colonies formed in infected Huh7.5.1.
All the compounds were first dissolved in DMSO at 50 mM, and then diluted to various concentrations (50 μM, 25 μM, 12.5 μM, 6.3 μM and 3.1 μM). Approximately 1 × 10^4 Huh7.5.1 cells per well were plated in an opaque 96-well tissue culture plate (Costar 3904). The next day, the medium was replaced by J399EM virus at an MOI of 0.3. Four hours later, the virus inoculum was removed and medium containing different concentrations of compounds was added. After an additional 72 h of incubation, the culture medium was removed and the EGFP autofluorescence was measured by using a […] with excitation at 488 nm and emission at 516 nm. Compounds and controls were performed in duplicate and each experiment repeated independently at least twice.

Data set [2] is described as follows: Cell viability / cytotoxicity by MTT method. In kind it is cell-based. Conditions: human. On the procedure: as §1
After the EGFP signal was read, cell viability was measured in the same plate by the MTT [3-(4,5-dimethylthiazol-2-yl)-2,5-diphenyltetrazolium bromide; Sigma-Aldrich, St. Louis, MO, USA] method. Briefly, MTT (1 mg/mL) was dissolved in PBS. Cell culture supernatants were removed and replaced with MTT and further cultured for 4 h; cells were then lysed with 10% sodium dodecyl sulfate (SDS), 50% N,N-dimethylformamide, pH 7.2. OD570 values were read. The percentage of cell death was calculated against the control well without compounds.

As to `O=c1c(OCCO)c(-c2ccc(O)c(O)c2)oc2cc(O)cc(O)c12` [Compound 12c, 2-(3,4-Dihydroxyphenyl)-5,7-dihydroxy-3-(2-hydroxyethoxy)-4H-chromen-4-one], in data set [1], a half-maximal response (EC50) required 26.3 ± 3.1 µM and the “SI (selectivity index)” value is on record as greater than 1.9. For the same molecule, in data set [2], the half-maximal cytotoxic concentration (CC50) – broadly, the concentration giving 50% cytotoxicity – is greater than 50 µM.
`O=C(Oc1c(-c2ccc(O)c(O)c2)oc2cc(O)cc(O)c2c1=O)c1ccc(F)cc1` [Compound 4k, 2-(3,4-Dihydroxyphenyl)-5,7-dihydroxy-4-oxo-4H-chromen-3-yl 4-fluorobenzoate]: the melting point (as a rule, the temperature, or range, at which the solid turns liquid) is 203 to 205 °C. In data set [1], the 50% effective concentration (EC50) (in general, the concentration at which the effect is half-maximal) is 9.7 ± 3.1 µM and the “SI (selectivity index)” value is reported as 3.6. In data set [2], the half-maximal cytotoxic concentration (CC50) was 35 ± 2.4 µM.
The like results for `Cc1ccccc1COc1cc(O)c2c(=O)c(O)c(-c3ccc(O)c(O)c3)oc2c1` [Compound 3e, 2-(3,4-Dihydroxyphenyl)-3,5-dihydroxy-7-((2-methylbenzyl)oxy)-4H-chromen-4-one] were, in that order, 241 to 242 °C, 4.9 ± 0.6 µM, 4.4 and 21.7 ± 1.4 µM.
In turn, `O=c1c(O)c(-c2ccc(O)c(O)c2)oc2cc(OCc3cccc(Br)c3)cc(O)c12` [Compound 3j, 7-((3-Bromobenzyl)oxy)-2-(3,4-dihydroxyphenyl)-3,5-dihydroxy-4H-chromen-4-one] yielded a melting point of 234 to 236 °C. For the same molecule, in data set [1], the response was half-maximal at 4.1 ± 0.3 µM (EC50) and the “SI (selectivity index)” value is recorded as 5.4. In data set [2], this molecule had a CC50 of 22.3 ± 1.2 µM.
On the same counts, the results for `O=C(Oc1c(-c2ccc(O)c(O)c2)oc2cc(O)cc(O)c2c1=O)c1cccc(F)c1` [Compound 4f, 2-(3,4-Dihydroxyphenyl)-5,7-dihydroxy-4-oxo-4H-chromen-3-yl 3-fluorobenzoate] are 211 to 213 °C, 9 ± 4.5 µM, greater than 5.6 and greater than 50 µM.
The like results for `O=c1c(O)c(-c2ccc(O)c(O)c2)oc2cc(OCc3ccccc3Br)cc(O)c12` [Compound 3d, 7-((2-Bromobenzyl)oxy)-2-(3,4-dihydroxyphenyl)-3,5-dihydroxy-4H-chromen-4-one] were, in that order, 248 to 249 °C, 5.5 ± 0.2 µM, 6.8 and 37.4 ± 0.8 µM.
The like results for `N#Cc1ccc(COc2cc(O)c3c(=O)c(O)c(-c4ccc(O)c(O)c4)oc3c2)cc1` [Compound 3r, 4-(((2-(3,4-Dihydroxyphenyl)-3,5-dihydroxy-4-oxo-4H-chromen-7-yl)oxy)methyl)benzonitrile] were, in that order, 252 to 254 °C, 6.2 ± 0.2 µM, 1.6 and 10.1 ± 0.1 µM.
`Cc1cccc(COc2cc(O)c3c(=O)c(O)c(-c4ccc(O)c(O)c4)oc3c2)c1` [Compound 3k, 2-(3,4-Dihydroxyphenyl)-3,5-dihydroxy-7-((3-methylbenzyl)oxy)-4H-chromen-4-one] had a melting point of 224 to 226 °C. Moreover, in data set [1], the response was half-maximal at 4.7 ± 0.4 µM (EC50) and the “SI (selectivity index)” value is 6.9. The molecule also yielded a half-maximal cytotoxic concentration (CC50) in data set [2] of 32.5 ± 0.7 µM.
On the same counts, the results for `O=c1c(O)c(-c2ccc(O)c(O)c2)oc2cc(OCc3ccccc3[N+](=O)[O-])cc(O)c12` [Compound 3g, 2-(3,4-Dihydroxyphenyl)-3,5-dihydroxy-7-((2-nitrobenzyl)oxy)-4H-chromen-4-one] are 260 to 261 °C, 7 ± 1.1 µM, 2.1 and 14.6 ± 0.5 µM.
The like results for `N#Cc1cccc(C(=O)Oc2c(-c3ccc(O)c(O)c3)oc3cc(O)cc(O)c3c2=O)c1` [Compound 4i, 2-(3,4-Dihydroxyphenyl)-5,7-dihydroxy-4-oxo-4H-chromen-3-yl 3-cyanobenzoate] were, in that order, 142 to 143 °C, 13.1 ± 1 µM, greater than 3.8 and greater than 50 µM.
As to `N#Cc1cccc(COc2cc(O)c3c(=O)c(O)c(-c4ccc(O)c(O)c4)oc3c2)c1` [Compound 3l, 3-(((2-(3,4-Dihydroxyphenyl)-3,5-dihydroxy-4-oxo-4H-chromen-7-yl)oxy)methyl)benzonitrile], in data set [1], the EC50 was determined as 5.4 ± 0.5 µM and the “SI (selectivity index)” value was found to be 2.0. Moreover, the CC50 in data set [2] (Huh7.5.1 cells, MTT, concentration required to reduce cell proliferation by 50%, average of duplicate determinations, read-out: CC50) worked out at 10.6 ± 0.5 µM.
In turn, `N#Cc1ccccc1C(=O)Oc1c(-c2ccc(O)c(O)c2)oc2cc(O)cc(O)c2c1=O` [Compound 4e, 2-(3,4-Dihydroxyphenyl)-5,7-dihydroxy-4-oxo-4H-chromen-3-yl 2-cyanobenzoate] returned a melting point of 196 to 197 °C. Moreover, in data set [1], it took 20.2 ± 8.6 µM to reach a half-maximal effect (EC50) and the “SI (selectivity index)” value was greater than 2.5. This molecule displayed a CC50 in data set [2] greater than 50 µM.
The like results for `N#Cc1ccccc1COc1cc(O)c2c(=O)c(O)c(-c3ccc(O)c(O)c3)oc2c1` [Compound 3f, 2-(((2-(3,4-Dihydroxyphenyl)-3,5-dihydroxy-4-oxo-4H-chromen-7-yl)oxy)methyl)benzonitrile] were, in that order, 248 to 249 °C, 7.5 ± 0.5 µM, 1.7 and 12.6 ± 0.1 µM.
The like results for `O=C(Oc1c(-c2ccc(O)c(O)c2)oc2cc(O)cc(O)c2c1=O)c1ccc(Cl)cc1` [Compound 4o, 2-(3,4-Dihydroxyphenyl)-5,7-dihydroxy-4-oxo-4H-chromen-3-yl 4-chlorobenzoate] were, in that order, 194 to 195 °C, 14.3 ± 2.2 µM, greater than 3.5 and greater than 50 µM.
On to `COc1c(-c2ccc(O)c(O)c2)oc2cc(O)cc(O)c2c1=O` [Compound 12a, 2-(3,4-Dihydroxyphenyl)-5,7-dihydroxy-3-methoxy-4H-chromen-4-one], for which, in data set [1], it took 11.2 ± 0.1 µM to reach a half-maximal effect (EC50) and the “SI (selectivity index)” value is listed as greater than 4.5. For the same molecule, the CC50 in data set [2] was greater than 50 µM.
Turning to `O=c1c(O)c(-c2ccc(O)c(O)c2)oc2cc(OCc3ccccc3Cl)cc(O)c12` [Compound 3c, 7-((2-Chlorobenzyl)oxy)-2-(3,4-dihydroxyphenyl)-3,5-dihydroxy-4H-chromen-4-one], the melting point lay within 253 to 254 °C. Besides, in data set [1], the EC50 turned out to be 4.8 ± 0.1 µM and the “SI (selectivity index)” value came out at 7.7. Further, in data set [2], the 50% cytotoxic concentration (CC50) turned out to be 36.7 ± 0.7 µM.
`O=C(Oc1c(-c2ccc(O)c(O)c2)oc2cc(O)cc(O)c2c1=O)c1ccccc1F` [Compound 4b, 2-(3,4-Dihydroxyphenyl)-5,7-dihydroxy-4-oxo-4H-chromen-3-yl 2-fluorobenzoate] registered a melting point of 186 to 187 °C. Moreover, in data set [1], the EC50 was 12.9 ± 3.2 µM and the “SI (selectivity index)” value was greater than 3.9. The same molecule yielded a CC50 in data set [2] greater than 50 µM.
`O=c1c(O)c(-c2ccc(O)c(O)c2)oc2cc(OCc3cccc([N+](=O)[O-])c3)cc(O)c12` [Compound 3m, 2-(3,4-Dihydroxyphenyl)-3,5-dihydroxy-7-((3-nitrobenzyl)oxy)-4H-chromen-4-one] showed a melting point of 264 to 266 °C. In addition, in data set [1], the response was half-maximal at 6.6 ± 1.1 µM (EC50) and the “SI (selectivity index)” value stood at 2.3. This molecule returned a CC50 in data set [2] of 15 ± 0.1 µM.
On the same counts, the results for `COc1cccc(C(=O)Oc2c(-c3ccc(O)c(O)c3)oc3cc(O)cc(O)c3c2=O)c1` [Compound 4h, 2-(3,4-Dihydroxyphenyl)-5,7-dihydroxy-4-oxo-4H-chromen-3-yl 3-methoxybenzoate] are 173 to 174 °C, 15.6 ± 0.3 µM, greater than 3.2 and greater than 50 µM.
For the molecule `O=c1c(O)c(-c2ccc(O)c(O)c2)oc2cc(OCc3cccc(F)c3)cc(O)c12` [Compound 3h, 2-(3,4-Dihydroxyphenyl)-7-((3-fluorobenzyl)oxy)-3,5-dihydroxy-4H-chromen-4-one], the melting point was 243 to 245 °C. Moreover, it took 6.3 ± 0.2 µM to reach a half-maximal effect in data set [1] (EC50). In data set [2], the CC50 was 44.5 ± 3.7 µM.
